Experiments:
[1] = tested on: murine peritoneal mast cells; assay: Ca2+ imaging of murine peritoneal mast cells; type: cell-based, mouse; settings: 100 µM bilirubin
Experimental: All cultured cells were maintained in DMEM supplemented with 10% FBS and 1% Penicillin/Streptomycin at 37°C, 5% CO2. All data included were generated from cells tested for mycoplasma and found to be negative. Cells were imaged in calcium imaging buffer (CIB; 10 mM HEPES, 1.2 mM NaHCO3, 130 mM NaCl, 3 mM KCl, 2.5 mM CaCl2, 0.6 mM MgCl2, 20 mM glucose, and 20 mM sucrose at pH 7.4 and 290–300 mOsm). To monitor changes in intracellular [Ca^2+] ([Ca^2+]i), cells were loaded with either Fura 2-AM (HEK293 cells) or Fluo 4-AM (DRG neurons and mast cells) for 30 min in the dark at 37°C in CIB just prior to imaging. With Fura 2-AM, emission at 510 nm was monitored from excitation at both 340 nm and 380 nm. With Fluo 4-AM, emission at 520 nm was monitored from excitation at 488 nm. Cells were identified as responding if the intracellular [Ca^2+] rose by either 50% compared to baseline or 50% compared to the [Ca^2+]i change assayed during addition of 50 mM KCl (neurons only). Damaged, detached, high-baseline, and motion-activated cells were excluded from analysis.
Mast cells were purified as described and plated onto glass coverslips coated with […] fibronectin and allowed to recover for 2 hr at 37°C. Cells were then loaded with Fluo-4 AM.
Adult male mice 8–12 weeks of age were sacrificed through CO2 inhalation. […]

[2] = tested on: Mrgpr-cluster KO DRG neurons; assay: Ca2+ imaging of Mrgpr-cluster KO DRG neurons infected with lentivirus encoding Mrgpra1, MRGPRX4 or MRGPRX3; type: cell-based, mouse; settings: 50 µM bilirubin (Fig 3J)
Experimental: DRGs were incubated with Fluo-4 AM 24 hr after dissociation (native genotype) or 48 hr after dissociation (virally transduced). Unless otherwise noted, cells were imaged for 20 seconds to establish a baseline before compounds were added. After 30 s, a 2 min wash was applied before addition of another substances. At the end of every imaging trial, 50 mM KCl was added as a positive control. […] For ruthenium red inhibitor experiments, neurons were incubated with 10 µM ruthenium red for 5 min prior to imaging. Percentage activated was determined as earlier described.
DRG neurons from all spinal levels were collected in cold DH10 media (90% Dulbecco’s modified Eagle’s medium (DMEM)/F-12, 10% FBS, penicillin (100 U/mL), and streptomycin (100 μg/mL)). DRGs were digested with a dispase (5 mg/ml)/collagenase type I (1 mg/ml) enzyme mixture at 37°C for 45 min. After trituration, cells were spun at 300 g and re-suspended in DH10 before being plated on glass coverslips coated with poly-D-lysine (0.5 mg/ml) and laminin (10 μg/ml, Invitrogen). DRGs were cultured with DH10 supplemented with 50 ng/mL NGF at 37°C.
Lentiviruses encoding various cDNA for MRGPRs were generated using psPAX2 and pMD2.G. Virus was pelleted by centrifugation at 100,000 g for 4 hr, gently washed with twice with DH10 medium, and suspended in DH10. One day after DRG isolation and culture, DRGs were infected with lentivirus […]. The following morning, medium was completely replaced with fresh DH10 supplemented with 50 ng/mL NGF. 24 hr after infection, cells were processed for calcium imaging.

[3] = biological target: T1, MRGPRC11 (Mus musculus, UniProt Q8CIP3); assay: Microscale thermophoresis binding to MRGPRC11; settings: for microscale thermophoresis response (binding isotherm), mean: mean of n=3, Fig 2-O
T1 construct: expressed in transfected cells
T1 sequence (Q8CIP3 1-322): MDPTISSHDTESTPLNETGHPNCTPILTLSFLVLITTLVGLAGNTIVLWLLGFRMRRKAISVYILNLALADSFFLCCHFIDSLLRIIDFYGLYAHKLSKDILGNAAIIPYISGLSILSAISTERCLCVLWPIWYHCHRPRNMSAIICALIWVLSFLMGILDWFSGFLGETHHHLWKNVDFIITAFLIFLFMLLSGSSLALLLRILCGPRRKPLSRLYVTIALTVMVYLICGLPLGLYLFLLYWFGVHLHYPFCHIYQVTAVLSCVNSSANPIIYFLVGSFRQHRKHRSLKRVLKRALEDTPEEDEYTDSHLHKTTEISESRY
Experimental: Binding isotherms for MRGPRA1, MRGPRX4, and MRGRPC11 towards various ligands were determined by microscale thermophoresis with the NanoTemper monolith NT.115 instrument ([Duhr and Braun, 2006]). Ligands were pre-incubated with 10 µM of the GFP-tagged receptor of interest for 5 min at room temperature in binding buffer (20 mM Tris and 150 mM NaCl at pH 8.8). Receptors were crudely purified as a membrane fraction from cells stably expressing the receptor ([Vasavda et al., 2017]). Haem metabolites were freshly dissolved in 0.1 M NaOH in dim light and then diluted into assay buffer. Lyophilized BAM8-22 was dissolved in binding buffer. The pH of each ligand was evaluated prior to incubation with a receptor. Samples were loaded into NT.115 Hydrophobic-Treated Capillaries from NanoTemper. Microscale thermophoretic experiments were executed using 20% LED power and 15% MST power. KDs were calculated using the law of mass action with data from three independent experiments. Binding between bilirubin and receptors was evaluated purely thermophoretically, whereas binding between BAM8-22 and MRGPRC11 was evaluated by T-Jump. Samples with dramatic deviations in initial fluorescence were excluded.

C=CC1=C(C)/C(=C/c2[nH]c(Cc3[nH]c(/C=C4\NC(=O)C(C)=C4C=C)c(C)c3CCC(=O)O)c(CCC(=O)O)c2C)NC1=O [bilirubin, bilirubin IXα]
Calcium response of peritoneal mast cells [1]: did not elicit a calcium response
Percent activated neurons ([2]; MRGPRX4-infected Mrgpr-cluster KO DRG): 32%
Percent activated neurons ([2]; Mrgpra1-infected Mrgpr-cluster KO DRG): 14%
Percent activated neurons ([2]; uninfected Mrgpr-cluster KO DRG): 1.3%
microscale thermophoresis response (binding isotherm), mean ([3]; [Ligand] 3.05e-8 M): 2.385e-5
microscale thermophoresis response (binding isotherm), mean ([3]; [Ligand] 6.1e-8 M): 4.712e-5
microscale thermophoresis response (binding isotherm), mean ([3]; [Ligand] 1.221e-7 M): 4.182e-5
microscale thermophoresis response (binding isotherm), mean ([3]; [Ligand] 2.441e-7 M): 4.08e-5
microscale thermophoresis response (binding isotherm), mean ([3]; [Ligand] 4.883e-7 M): 5.536e-5
microscale thermophoresis response (binding isotherm), mean ([3]; [Ligand] 9.766e-7 M): 1.928e-5
microscale thermophoresis response (binding isotherm), mean ([3]; [Ligand] 1.9531e-6 M): -5.329e-6
microscale thermophoresis response (binding isotherm), mean ([3]; [Ligand] 3.9063e-6 M): -1.57e-5
microscale thermophoresis response (binding isotherm), mean ([3]; [Ligand] 7.8125e-6 M): -3.808e-5
microscale thermophoresis response (binding isotherm), mean ([3]; [Ligand] 1.5625e-5 M): -4.952e-5
microscale thermophoresis response (binding isotherm), mean ([3]; [Ligand] 3.125e-5 M): -4.222e-5
microscale thermophoresis response (binding isotherm), mean ([3]; [Ligand] 6.25e-5 M): 5.5228e-6
microscale thermophoresis response (binding isotherm), mean ([3]; [Ligand] 0.000125 M): 4.793e-5
microscale thermophoresis response (binding isotherm), mean ([3]; [Ligand] 0.00025 M): 9.26e-5
microscale thermophoresis response (binding isotherm), mean ([3]; [Ligand] 0.0005 M): 0.0002843
Affinity for MRGPRC11 ([3]; microscale thermophoresis): little to no affinity

Reference: PMC6368403, “Identification of a bilirubin receptor that may mediate a component of cholestatic itch” (eLife, 2019)
